Laboratory results reported in ChEMBL document CHEMBL1131477, “Synthesis and biological activity of a novel series of nonsteroidal, peripherally selective androgen receptor antagonists derived from 1,2-dihydropyridono[5,6-g]quinolines” (J Med Chem, 1998).

These compounds were tested against T1, Progesterone receptor (Homo sapiens) (UniProt P06401) (assay: Efficacy as a function of maximal inhibition against human progesterone receptor B (hPR-B).).
T1 sequence (whole entry): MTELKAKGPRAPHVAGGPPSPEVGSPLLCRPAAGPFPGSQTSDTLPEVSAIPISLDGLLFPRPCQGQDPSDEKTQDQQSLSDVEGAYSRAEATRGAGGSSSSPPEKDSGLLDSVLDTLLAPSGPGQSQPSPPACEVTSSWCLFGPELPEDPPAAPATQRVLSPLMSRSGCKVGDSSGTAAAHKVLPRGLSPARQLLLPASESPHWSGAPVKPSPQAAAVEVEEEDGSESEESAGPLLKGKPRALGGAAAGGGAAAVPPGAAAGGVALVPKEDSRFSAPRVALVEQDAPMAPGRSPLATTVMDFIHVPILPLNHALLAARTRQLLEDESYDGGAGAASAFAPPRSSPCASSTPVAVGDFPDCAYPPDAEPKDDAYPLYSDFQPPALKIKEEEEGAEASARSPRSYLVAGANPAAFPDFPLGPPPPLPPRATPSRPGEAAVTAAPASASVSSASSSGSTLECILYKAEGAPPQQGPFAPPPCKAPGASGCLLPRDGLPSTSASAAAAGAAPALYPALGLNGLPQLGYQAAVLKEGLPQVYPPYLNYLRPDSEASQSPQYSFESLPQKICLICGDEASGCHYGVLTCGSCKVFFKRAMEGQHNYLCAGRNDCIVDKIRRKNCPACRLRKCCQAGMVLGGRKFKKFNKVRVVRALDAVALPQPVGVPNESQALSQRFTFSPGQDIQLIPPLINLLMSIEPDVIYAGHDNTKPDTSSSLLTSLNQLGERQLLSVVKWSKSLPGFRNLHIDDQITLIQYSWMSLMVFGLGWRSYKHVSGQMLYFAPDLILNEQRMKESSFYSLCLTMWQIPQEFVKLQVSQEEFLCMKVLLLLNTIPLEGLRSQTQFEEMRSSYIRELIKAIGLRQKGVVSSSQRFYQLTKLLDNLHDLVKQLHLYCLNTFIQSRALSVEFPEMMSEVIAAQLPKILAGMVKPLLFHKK

| SMILES | Efficacy |
| --- | --- |
| CCC1(C)CCc2cc3c(C(F)(F)F)cc(=O)n(C)c3cc2N1 (stereo not given) | 73% |
| CC1=CC(C)(C)N(C)c2cc3c(cc21)c(C(F)(F)F)cc(=O)n3C | 91% |
| CC(O)(CS(=O)(=O)c1ccc(F)cc1)C(=O)Nc1ccc(C#N)c(C(F)(F)F)c1 (stereo not given) [BICALUTAMIDE] | 88% |
| CC1(C)C=Cc2cc3c(C(F)(F)F)cc(O)nc3cc2N1 | 81% |
| CCC1(C)CCc2cc3c(C(F)(F)F)cc(=O)n(C)c3cc2N1C (stereo not given) | 92% |
| CC1=CC(C)(C)Nc2c1cc1c(C(F)(F)F)cc(=O)n(C)c1c2C | 68% |
| CCC1(C)CCc2cc3c(C(F)(F)F)cc(O)nc3cc2N1 (stereo not given) | 91% |
| CC1=C(C)C(C)(C)Nc2cc3nc(O)cc(C(F)(F)F)c3cc21 | 65% |
| CC(C)(O)C(=O)Nc1ccc([N+](=O)[O-])c(C(F)(F)F)c1 | 90% |
| CN1c2cc3c(cc2CCC1(C)C)c(C(F)(F)F)cc(=O)n3C | 85% |
| CC1CC(C)(C)Nc2cc3c(cc21)c(C(F)(F)F)cc(=O)n3C (stereo not given) | 98% |
| CC12CCCN1c1cc3nc(O)cc(C(F)(F)F)c3cc1CC2 (stereo not given) | 11% |
| C[C@H]1c2cc3c(C(F)(F)F)cc(O)nc3cc2NC(C)(C)[C@H]1C | 95% |

Each compound was assayed against T2, Progesterone receptor (Homo sapiens, UniProt P06401) (assay: Antagonistic activity against human progesterone receptor B (hPR-B) in co-transfected CV-1 cells.).
T2 sequence (P06401 whole entry): T1 sequence (whole entry)
Format: functional, cell-based

| SMILES | IC50 |
| --- | --- |
| CC1(C)Cc2cc3c(C(F)(F)F)cc(=O)[nH]c3cc2NC1(C)C | 876 nM |
| CC1=C(C)C(C)(C)Nc2cc3[nH]c(=O)cc(C(F)(F)F)c3cc21 | 393 nM |
| CCC1Cc2cc3c(C(F)(F)F)cc(=O)[nH]c3cc2NC1(C)C (stereo not given) | 2330 nM |
| CC1=CC(C)(C)Nc2cc3[nH]c(=O)cc(C)c3cc21 | 109 nM |
| CC1=CC(C)(C)Nc2cc3[nH]c(=O)cc(C(F)(F)F)c3cc21 | 49 nM |
| CC1Cc2cc3c(C(F)(F)F)cc(=O)[nH]c3cc2NC1(C)C (stereo not given) | 348 nM |
| CCCC1(C)CCc2cc3c(C(F)(F)F)cc(=O)[nH]c3cc2N1 (stereo not given) | 1140 nM |
| Cc1c2c(cc3c(C(F)(F)F)cc(=O)[nH]c13)C(C)CC(C)(C)N2 (stereo not given) | 3730 nM |
| CCC1(C)CCc2cc3c(C(F)(F)F)cc(=O)n(C)c3cc2N1 (stereo not given) | 3280 nM |
| CC1=CC(C)(C)N(C)c2cc3c(cc21)c(C(F)(F)F)cc(=O)n3C | 136 nM |
| CC1(C)CCc2cc3c(C(F)(F)F)cc(=O)[nH]c3cc2N1 | 330 nM |
| CCC1(C)CCc2cc3c(C(F)(F)F)cc(=O)[nH]c3cc2N1 (stereo not given) | 543 nM |
| CC(O)(CS(=O)(=O)c1ccc(F)cc1)C(=O)Nc1ccc(C#N)c(C(F)(F)F)c1 (stereo not given) [BICALUTAMIDE] | 1820 nM |
| CC1(C)C=Cc2cc3c(C(F)(F)F)cc(O)nc3cc2N1 | 390 nM |
| CCC1(C)CCc2cc3c(C(F)(F)F)cc(=O)n(C)c3cc2N1C (stereo not given) | 1100 nM |
| CC1=CC(C)(C)Nc2c1cc1c(C(F)(F)F)cc(=O)n(C)c1c2C | 4400 nM |
| CN1c2cc3c(cc2CCC1(C)C)c(C(F)(F)F)cc(=O)n3C | 2200 nM |
| CC1CC(C)(C)Nc2cc3c(cc21)c(C(F)(F)F)cc(=O)n3C (stereo not given) | 585 nM |
| CC12CCCN1c1cc3nc(O)cc(C(F)(F)F)c3cc1CC2 (stereo not given) | > 10000 nM |
| C[C@H]1c2cc3c(C(F)(F)F)cc(O)nc3cc2NC(C)(C)[C@H]1C | 310 nM |

Each compound was assayed against T3, Androgen receptor (Homo sapiens, UniProt P10275) (assay: not given).
T3 sequence (P10275 whole entry): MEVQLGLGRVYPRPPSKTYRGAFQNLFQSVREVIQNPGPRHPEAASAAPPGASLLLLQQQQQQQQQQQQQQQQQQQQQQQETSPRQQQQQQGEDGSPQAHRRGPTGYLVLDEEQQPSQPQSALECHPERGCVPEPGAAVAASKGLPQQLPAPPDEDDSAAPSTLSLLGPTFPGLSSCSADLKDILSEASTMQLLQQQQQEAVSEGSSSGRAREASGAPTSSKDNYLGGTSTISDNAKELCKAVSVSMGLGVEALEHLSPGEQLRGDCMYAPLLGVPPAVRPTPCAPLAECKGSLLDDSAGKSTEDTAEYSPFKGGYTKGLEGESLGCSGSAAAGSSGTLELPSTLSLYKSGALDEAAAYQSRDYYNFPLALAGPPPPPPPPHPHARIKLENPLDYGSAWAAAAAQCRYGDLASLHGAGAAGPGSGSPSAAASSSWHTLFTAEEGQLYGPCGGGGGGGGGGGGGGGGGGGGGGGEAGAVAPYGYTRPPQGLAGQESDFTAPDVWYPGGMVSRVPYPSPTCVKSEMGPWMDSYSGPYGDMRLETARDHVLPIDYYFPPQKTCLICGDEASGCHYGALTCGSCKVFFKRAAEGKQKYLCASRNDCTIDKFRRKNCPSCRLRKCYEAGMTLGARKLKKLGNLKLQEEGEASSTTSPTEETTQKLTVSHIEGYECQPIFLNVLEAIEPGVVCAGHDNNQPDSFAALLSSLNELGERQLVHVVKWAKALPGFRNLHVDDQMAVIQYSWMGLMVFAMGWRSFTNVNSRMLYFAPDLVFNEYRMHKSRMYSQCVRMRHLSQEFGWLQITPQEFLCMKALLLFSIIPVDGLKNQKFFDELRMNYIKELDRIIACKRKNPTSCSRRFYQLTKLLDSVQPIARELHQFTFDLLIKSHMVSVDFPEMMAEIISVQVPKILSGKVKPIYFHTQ

| SMILES | IC50 |
| --- | --- |
| CC1(C)Cc2cc3c(C(F)(F)F)cc(=O)[nH]c3cc2NC1(C)C | 83 nM |
| CC1=C(C)C(C)(C)Nc2cc3[nH]c(=O)cc(C(F)(F)F)c3cc21 | 68 nM |
| CCC1Cc2cc3c(C(F)(F)F)cc(=O)[nH]c3cc2NC1(C)C (stereo not given) | 46 nM |
| CC1=CC(C)(C)Nc2cc3[nH]c(=O)cc(C)c3cc21 | 36 nM |
| CC1Cc2cc3c(C(F)(F)F)cc(=O)[nH]c3cc2NC1(C)C (stereo not given) | 30 nM |
| CCCC1(C)CCc2cc3c(C(F)(F)F)cc(=O)[nH]c3cc2N1 (stereo not given) | 42 nM |
| Cc1c2c(cc3c(C(F)(F)F)cc(=O)[nH]c13)C(C)CC(C)(C)N2 (stereo not given) | 22 nM |
| CCC1(C)CCc2cc3c(C(F)(F)F)cc(=O)n(C)c3cc2N1 (stereo not given) | 48 nM |
| CC1=CC(C)(C)N(C)c2cc3c(cc21)c(C(F)(F)F)cc(=O)n3C | 46 nM |
| CC1(C)C=Cc2cc3c(C(F)(F)F)cc(O)nc3cc2N1 | 58 nM |
| CCC1(C)CCc2cc3c(C(F)(F)F)cc(=O)n(C)c3cc2N1C (stereo not given) | 24 nM |
| CN1c2cc3c(cc2CCC1(C)C)c(C(F)(F)F)cc(=O)n3C | 19 nM |
| CC1CC(C)(C)Nc2cc3c(cc21)c(C(F)(F)F)cc(=O)n3C (stereo not given) | 73 nM |

The compounds below were run against T3, Androgen receptor (assay: biochemical).
Description: Binding affinity for human androgen receptor in transiently-transfected COS-1 cells.

| SMILES | Ki |
| --- | --- |
| CC1(C)Cc2cc3c(C(F)(F)F)cc(=O)[nH]c3cc2NC1(C)C | 189 nM |
| CC1=C(C)C(C)(C)Nc2cc3[nH]c(=O)cc(C(F)(F)F)c3cc21 | 268 nM |
| CCC1Cc2cc3c(C(F)(F)F)cc(=O)[nH]c3cc2NC1(C)C (stereo not given) | 251 nM |
| CC1=CC(C)(C)Nc2cc3[nH]c(=O)cc(C)c3cc21 | 62 nM |
| CC1Cc2cc3c(C(F)(F)F)cc(=O)[nH]c3cc2NC1(C)C (stereo not given) | 73 nM |
| CCCC1(C)CCc2cc3c(C(F)(F)F)cc(=O)[nH]c3cc2N1 (stereo not given) | 69 nM |
| Cc1c2c(cc3c(C(F)(F)F)cc(=O)[nH]c13)C(C)CC(C)(C)N2 (stereo not given) | 85 nM |
| CCC1(C)CCc2cc3c(C(F)(F)F)cc(=O)n(C)c3cc2N1 (stereo not given) | 69 nM |
| CC1=CC(C)(C)N(C)c2cc3c(cc21)c(C(F)(F)F)cc(=O)n3C | 39 nM |
| CC1(C)C=Cc2cc3c(C(F)(F)F)cc(O)nc3cc2N1 | 86 nM |
| CCC1(C)CCc2cc3c(C(F)(F)F)cc(=O)n(C)c3cc2N1C (stereo not given) | 10 nM |
| CC1=CC(C)(C)Nc2c1cc1c(C(F)(F)F)cc(=O)n(C)c1c2C | 874 nM |
| CN1c2cc3c(cc2CCC1(C)C)c(C(F)(F)F)cc(=O)n3C | 17 nM |
| CC1CC(C)(C)Nc2cc3c(cc21)c(C(F)(F)F)cc(=O)n3C (stereo not given) | 46 nM |
